Measurements as given in patent US10829473B2, “Modulators of the cystic fibrosis transmembrane conductance regulator protein and methods of use” (AbbVie Overseas S.Á.R.L., priority 2017, dated 2020).
Like-named read-outs stand apart in the source and are kept apart here. Marks after values point to notes of the source that are not given here.

Biological target: T1, F508delCFTR (Homo sapiens, UniProt P13569, DEL508-508)
T1 construct: expressed in transfected cells; host or cells: CFBE41o- human lung derived epithelial cells (CFBE41o-F508delCFTR-HRP), doxycycline-inducible
T1 sequence (P13569 with tags, fused parts or gaps DEL508-508): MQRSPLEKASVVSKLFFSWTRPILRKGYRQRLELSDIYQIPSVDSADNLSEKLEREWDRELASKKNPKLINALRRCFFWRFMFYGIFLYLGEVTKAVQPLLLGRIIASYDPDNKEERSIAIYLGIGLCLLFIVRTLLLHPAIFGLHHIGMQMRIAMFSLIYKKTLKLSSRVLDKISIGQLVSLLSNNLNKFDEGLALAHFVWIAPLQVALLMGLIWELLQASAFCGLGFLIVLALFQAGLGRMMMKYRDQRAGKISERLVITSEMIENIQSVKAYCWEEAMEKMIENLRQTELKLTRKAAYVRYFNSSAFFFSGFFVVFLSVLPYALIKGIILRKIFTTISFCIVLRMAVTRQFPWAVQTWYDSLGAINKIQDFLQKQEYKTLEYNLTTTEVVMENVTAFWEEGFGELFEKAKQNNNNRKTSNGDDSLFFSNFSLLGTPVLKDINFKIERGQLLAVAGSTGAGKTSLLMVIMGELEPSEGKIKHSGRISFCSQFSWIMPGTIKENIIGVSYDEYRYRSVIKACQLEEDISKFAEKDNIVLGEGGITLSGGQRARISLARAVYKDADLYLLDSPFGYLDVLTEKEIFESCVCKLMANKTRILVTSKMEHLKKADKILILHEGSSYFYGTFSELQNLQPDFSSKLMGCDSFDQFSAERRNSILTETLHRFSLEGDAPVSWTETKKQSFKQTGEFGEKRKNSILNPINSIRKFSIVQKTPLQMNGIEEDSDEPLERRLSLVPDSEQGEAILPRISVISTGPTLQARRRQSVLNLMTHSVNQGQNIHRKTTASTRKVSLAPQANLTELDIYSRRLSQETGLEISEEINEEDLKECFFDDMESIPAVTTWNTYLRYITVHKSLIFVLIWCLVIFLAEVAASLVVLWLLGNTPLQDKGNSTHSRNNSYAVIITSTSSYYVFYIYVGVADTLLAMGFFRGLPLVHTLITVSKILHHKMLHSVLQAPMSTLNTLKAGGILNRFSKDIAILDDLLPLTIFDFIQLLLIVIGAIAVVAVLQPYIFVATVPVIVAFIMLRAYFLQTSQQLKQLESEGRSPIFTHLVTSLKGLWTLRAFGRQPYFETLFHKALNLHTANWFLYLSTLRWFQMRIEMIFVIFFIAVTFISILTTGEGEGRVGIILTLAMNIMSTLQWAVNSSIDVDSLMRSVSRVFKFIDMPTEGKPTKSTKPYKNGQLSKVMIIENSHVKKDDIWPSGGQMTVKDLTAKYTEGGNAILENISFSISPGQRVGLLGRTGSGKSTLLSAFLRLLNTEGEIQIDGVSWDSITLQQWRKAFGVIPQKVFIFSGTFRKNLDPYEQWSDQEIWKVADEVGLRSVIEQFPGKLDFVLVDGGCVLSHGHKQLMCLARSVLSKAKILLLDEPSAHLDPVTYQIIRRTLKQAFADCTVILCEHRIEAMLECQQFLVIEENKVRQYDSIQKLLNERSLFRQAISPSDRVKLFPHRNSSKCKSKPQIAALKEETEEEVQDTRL
Experiment: Cell Surface Expression-Horse Radish Peroxidase (CSE-HRP) Assay;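 on EC50 (with co-corrector): co-corrector chromenyl benzoic acid corrector at 2 or 3 µM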;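 on Maximum % activity (without co-corrector): % of on-plate positive control chromenyl benzoic acid corrector at 2 or 3 µM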
Assay type: cell-based
Conditions: for Maximum % activity (with co-corrector) / Emax: maximum at any tested concentration; for Emax: read-out: Maximum % activity (without co-corrector)
How it was run: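 Corrector compounds were given as 8-point 3-fold series from 20 or 30 μM, with or without a 2 μM co-corrector, for 18-24 h at 33 °C. Surface HRP was read by luminol luminescence as % of positive control; variable-Hill-slope sigmoidal fitting gave EC50 from triplicate plates.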

[1] = test compound alone, without co-corrector, read-out: EC50 (without co-corrector)
[2] = with co-corrector, read-out: EC50 (with co-corrector)
[3] = test compound with co-corrector
[4] = test compound with co-corrector, read-out: EC50 (with co-corrector)
[5] = test compound without co-corrector
[6] = test compound without co-corrector, read-out: EC50 (without co-corrector)

SMILES	EC50 [1] [µM]	Maximum % activity (with co-corrector) (with co-corrector)	EC50 [2] [µM]	Emax (without co-corrector) [%]	Maximum % activity (with co-corrector) [3]	EC50 [4] [µM]	Emax [5] [%]	EC50 [6] [µM]	EC50 (with co-corrector) [3]	EC50 (without co-corrector) [5]
COc1ccc(C2CC2)c(C)c1C1(C(=O)NS(=O)(=O)c2cccc3c2CCCN3)CC1 [II-37]	< 3	+++ (≥350)	< 3	> 150	–	–	–	–	–	–
O=C(NS(=O)(=O)c1cccc2c1CCCN2)C1(c2ccc(C(F)(F)F)nc2C2CC2)CC1 [Example GI-6, 1-[2-cyclopropyl-6-(trifluoromethyl)pyridin-3-yl]-N-(1,2,3,4-tetrahydroquinoline-5-sulfonyl)cyclopropane-1-carboxamide]	3 to 10	+++ (≥350)	< 3	> 150	–	–	–	–	–	–
CCc1cnc(N(C)C)c(C2(C(=O)NS(=O)(=O)c3cccc4[nH]ccc34)CC2)c1 [GII-49, 1-[2-(dimethylamino)-5-ethylpyridin-3-yl]-N-(1H-indole-4-sulfonyl)cyclopropane-1-carboxamide]	–	–	–	–	+++ (≥350)	3 to 10	> 150	3 to 10	–	–
Cc1ccc(C2(C(=O)NS(=O)(=O)Cc3ccccc3)CC2)cc1 [Example III-111, 1-(4-methylphenyl)-N-(phenylmethanesulfonyl)cyclopropane-1-carboxamide]	> 10	++ (≥150 and <350)	3 to 10	< 50	–	–	–	–	–	–
COc1ccc(C2CC2)c(C)c1C1(C(=O)NS(=O)(=O)c2cccc3ncccc23)CC1 [Example I-48, 1-(3-cyclopropyl-6-methoxy-2-methylphenyl)-N-(quinoline-5-sulfonyl)cyclopropane-1-carboxamide]	< 3	+++ (≥350)	< 3	> 150	–	–	–	–	–	–
O=C1CCCN1c1ccc(S(=O)(=O)NC(=O)C2(c3ccc(Cl)cc3Cl)CC2)cc1 [Example III-16, 1-(2,4-dichlorophenyl)-N-[4-(2-oxopyrrolidin-1-yl)benzene-1-sulfonyl]cyclopropane-1-carboxamide]	> 10	+ (<150)	> 10	< 50	–	–	–	–	–	–
CCc1cnc(N2CCOCC2)c(C2(C(=O)NS(=O)(=O)c3cccc4nc(C)ccc34)CC2)c1 [GII-32, 1-[5-ethyl-2-(morpholin-4-yl)pyridin-3-yl]-N-(2-methylquinoline-5-sulfonyl)cyclopropane-1-carboxamide]	–	–	–	–	++ (≥150 and <350)	–	50 to 150	–	++^a	++^a
COc1ccc(C2CCC2)c(C2(C(=O)NS(=O)(=O)c3cccc4nc(C)ccc34)CC2)c1 [II-47]	< 3	+++ (≥350)	< 3	> 150	–	–	–	–	–	–
CO[C@@H](C)COc1ccc(C)cc1C1(C(=O)NS(=O)(=O)c2cccc3nc(C)ccc23)CC1 [Example I-114, 1-{2-[(2S)-2-methoxypropoxy]-5-methylphenyl}-N-(2-methylquinoline-5-sulfonyl)cyclopropane-1-carboxamide]	< 3	+++ (≥350)	< 3	> 150	–	–	–	–	–	–
COc1ncc(C(F)(F)F)cc1C1(C(=O)NS(=O)(=O)c2cccc3c2CCCN3)CC1 [II-8]	3 to 10	+++ (≥350)	< 3	> 150	–	–	–	–	–	–
COc1ncc(C(F)(F)F)cc1C1(C(=O)NS(=O)(=O)c2cccc3[nH]ccc23)CC1 [Example I-22, N-(1H-indole-4-sulfonyl)-1-[2-methoxy-5-(trifluoromethyl)pyridin-3-yl]cyclopropane-1-carboxamide]	3 to 10	+++ (≥350)	< 3	> 150	–	–	–	–	–	–
Cc1ccc(S(=O)(=O)NC(=O)C2(c3ccc(Cl)cc3Cl)CC2)cc1 [Example III-37, 1-(2,4-dichlorophenyl)-N-(4-methylbenzene-1-sulfonyl)cyclopropane-1-carboxamide]	> 10	++ (≥150 and <350)	3 to 10	< 50	–	–	–	–	–	–
O=C(NS(=O)(=O)c1ccc(-c2ccno2)s1)C1(c2ccc(Cl)cc2Cl)CC1 [Example III-17, 1-(2,4-dichlorophenyl)-N-[5-(1,2-oxazol-5-yl)thiophene-2-sulfonyl]cyclopropane-1-carboxamide]	> 10	+ (<150)	> 10	< 50	–	–	–	–	–	–
O=C(NS(=O)(=O)c1cccc2ncccc12)C1(c2cc(OC(F)(F)F)ccc2Cl)CC1 [II-24]	< 3	+++ (≥350)	< 3	> 150	–	–	–	–	–	–
COc1ccc(CO)cc1C1(C(=O)NS(=O)(=O)c2cccc3ncccc23)CC1 [II-48]	> 10	++ (≥150 and <350)	3 to 10	< 50	–	–	–	–	–	–
COc1cc(C2(C(=O)NS(=O)(=O)c3cccc4nc(C)ccc34)CC2)c(OCC(C)C)cn1 [Example GI-20, 1-[2-methoxy-5-(2-methylpropoxy)pyridin-4-yl]-N-(2-methylquinoline-5-sulfonyl)cyclopropane-1-carboxamide]	< 3	+++ (≥350)	< 3	> 150	–	–	–	–	–	–
Cc1noc(C)c1S(=O)(=O)NC(=O)C1(c2ccc(Cl)cc2Cl)CC1 [Example III-12, 1-(2,4-dichlorophcnyl)-N-(3,5-dimethyl-1,2-oxazole-4-sulfonyl)cyclopropane-1-carboxamide]	> 10	++ (≥150 and <350)	3 to 10	< 50	–	–	–	–	–	–
O=C(OCc1ccccc1)N1CCC(S(=O)(=O)NC(=O)C2(c3ccc(Cl)c(Cl)c3)CC2)CC1 [Example III-70, benzyl 4-{[1-(3,4-dichlorophenyl)cyclopropane-1-carbonyl]sulfamoyl}piperidine-1-carboxylate]	> 10	+ (<150)	> 10	< 50	–	–	–	–	–	–
O=C(NS(=O)(=O)c1ccccc1)C1(c2ccc(Cl)cc2)CCC1 [Example III-7, N-(benzenesulfonyl)-1-(4-chlorophenyl)cyclobutane-1-carboxamide]	> 10	++ (≥150 and <350)	3 to 10	< 50	–	–	–	–	–	–
COc1ncc(C(F)(F)F)cc1C1(C(=O)NS(=O)(=O)c2cccn3nccc23)CC1 [Example III-95, 1-[2-methoxy-5-(trifluoromethyl)pyridin-3-yl]-N-(pyrazolo[1,5-a]pyridine-4-sulfonyl)cyclopropane-1-carboxamide]	3 to 10	+++ (≥350)	3 to 10	> 150	–	–	–	–	–	–
Cc1ccc(O[C@@H]2CCOC2)c(C2(C(=O)NS(=O)(=O)c3cccc4nc(C)ccc34)CC2)c1 [Example I-123, 1-(5-methyl-2-{[(3R)-oxolan-3-yl]oxy}phenyl)-N-(2-methylquinoline-5-sulfonyl)cyclopropane-1-carboxamide]	< 3	+++ (≥350)	< 3	> 150	–	–	–	–	–	–
Cc1ccc(C)c(C2(C(=O)NS(=O)(=O)c3cccc4[nH]ccc34)CC2)c1 [II-80]	3 to 10	+++ (≥350)	< 3	> 150	–	–	–	–	–	–
O=C(NS(=O)(=O)c1cccc2ncccc12)C1(c2cc(C3CCC3)cnc2N2CCCC2)CC1 [Example GI-28, 1-[5-cyclobutyl-2-(pyrrolidin-1-yl)pyridin-3-yl]-N-(quinoline-5-sulfonyl)cyclopropane-1-carboxamide]	3 to 10	+++ (≥350)	< 3	> 150	–	–	–	–	–	–
COc1ccc(C2CCC2)cc1C1(C(=O)NS(=O)(=O)c2cccn3nccc23)CCC1 [Example I-23, 1-(5-cyclobutyl-2-methoxyphenyl)-N-(pyrazolo[1,5-a]pyridine-4-sulfonyl)cyclobutane-1-carboxamide]	3 to 10	+++ (≥350)	< 3	> 150	–	–	–	–	–	–
COc1ccc(C2CC2)cc1C1(C(=O)NS(=O)(=O)c2cccc3c2CCCN3)CCC1 [Example I-27, 1-(5-cyclopropyl-2-methoxyphenyl)-N-(1,2,3,4-tetrahydroquinoline-5-sulfonyl)cyclobutane-1-carboxamide]	3 to 10	+++ (≥350)	< 3	> 150	–	–	–	–	–	–
Cc1cnc(N2CCN(C)CC2)c(C2(C(=O)NS(=O)(=O)c3cccc4ncccc34)CC2)c1 [GIII-26]	–	–	–	–	++ (≥150 and <350)	> 10	< 50	> 10	–	–
COc1ccc(C)c(C)c1C1(C(=O)NS(=O)(=O)c2cccc3ncccc23)CC1 [Example I-47, 1-(6-methoxy-2,3-dimethylphenyl)-N-(quinoline-5-sulfonyl)cyclopropane-1-carboxamide]	< 3	+++ (≥350)	< 3	> 150	–	–	–	–	–	–
CCc1cnc(OCC2CC2)c(C2(C(=O)NS(=O)(=O)c3cccc4nc(C)ccc34)CC2)c1 [Example GI-107, 1-[2-(cyclopropylmethoxy)-5-ethylpyridin-3-yl]-N-(2-methylquinoline-5-sulfonyl)cyclopropane-1-carboxamide]	–	–	–	–	+++ (≥350)	< 3	> 150	< 3	–	–
